Drawing on PubChem BioAssay AID330 (DTP/NCI, 2004), this text covers T/C for 25 compounds.

For the experiment, the system named is P388 leukemia ip, CD2F1 mice, survival T/C. The experiment in a line: NCI In Vivo Anticancer Drug Screen. Data for tumor model P388 Leukemia (intraperitoneal) in CD2F1 (CDF1) mice. Particulars: endpoint: median survival time, higher = longer survival. A digest of the protocol:
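Mice carrying the transplanted tumor received test compound or vehicle. Survival was recorded in each group, and the value is the treated-group measurement divided by that of the vehicle-treated control group.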

The mark [1] stands for this setting: dose: 50.0 mg/kg/injection, schedule: Q01DX005 (ip), vehicle: saline with Tween-80.
Where [2] appears, read: dose: 100.0 mg/kg/injection, schedule: Q01DX005 (ip), vehicle: saline with Tween-80.
Where [3] appears, read: dose: 200.0 mg/kg/injection, schedule: Q01DX005 (ip), vehicle: saline with Tween-80.
[4] abbreviates: dose: 60.0 mg/kg/injection, schedule: Q01DX005 (ip), vehicle: saline with Tween-80.
Setting [5] is: dose: 120.0 mg/kg/injection, schedule: Q01DX005 (ip), vehicle: saline with Tween-80.
Where [6] appears, read: dose: 240.0 mg/kg/injection, schedule: Q01DX005 (ip), vehicle: saline with Tween-80.
Setting [7] is: dose: 50.0 mg/kg/injection, schedule: Q01DX009 (ip), vehicle: saline.
Setting [8] is: dose: 100.0 mg/kg/injection, schedule: Q01DX009 (ip), vehicle: saline.
[9] abbreviates: dose: 100.0 mg/kg/injection, schedule: Q04DX002 (ip), vehicle: Klucel (hydroxypropylcellulose) (HPC).
The mark [10] stands for this setting: dose: 100.0 mg/kg/injection, schedule: Q01DX009 (ip), vehicle: saline with Tween-80.
The mark [11] stands for this setting: dose: 200.0 mg/kg/injection, schedule: Q01DX009 (ip), vehicle: saline with Tween-80.
Where [12] appears, read: dose: 50.0 mg/kg/injection, schedule: Q01DX009 (ip), vehicle: saline with Tween-80.
The mark [13] stands for this setting: dose: 1.87 mg/kg/injection, schedule: Q01DX005 (ip), vehicle: Klucel (hydroxypropylcellulose) (HPC).
Where [14] appears, read: dose: 7.5 mg/kg/injection, schedule: Q01DX005 (ip), vehicle: Klucel (hydroxypropylcellulose) (HPC).

Several values for one entry are separate records, joined by “and”; a condition that tells them apart may be missing. Equal values may be shown once. Inconclusive results and toxic doses are left out. Peptide text beside a SMILES is read from it. * marks the point of attachment. Cbz = O=C(OCc1ccccc1)*

As to `Cc1ccc2c(C(=O)O)cc(-c3ccc4c(c3)OCO4)nc2c1`, the T/C is, setting by setting: (dose: 50.0 mg/kg/injection, schedule: Q01DX009 (ip), vehicle: Klucel (hydroxypropylcellulose) (HPC)) 98 % of control; (dose: 100.0 mg/kg/injection, schedule: Q01DX009 (ip), vehicle: Klucel (hydroxypropylcellulose) (HPC)) 98 % of control; (dose: 200.0 mg/kg/injection, schedule: Q01DX009 (ip), vehicle: Klucel (hydroxypropylcellulose) (HPC)) 106 % of control.
`Cc1ccccc1N=Nc1ccc(N=Nc2ccc(N)nc2N)c(C)c1`: the T/C is, setting by setting: under setting [1], 104 % of control; under setting [2], 110 % of control; under setting [3], 99 % of control.
Consider `O=C1OC2C(O)C(N(O)c3ccccc3)OC2[C@@H]1O` (stereo partly specified), for which the T/C is 100 % of control under setting [4], 106 % of control under setting [5] and 106 % of control under setting [6].
In the case of `O=C1CSC(c2ccc(F)cc2)N1c1nncs1` (stereo unspecified), the T/C reads like this: under setting [4], 99 % of control; under setting [5], 97 % of control; under setting [6], 101 % of control.
As to `CC(C)(C)C(=O)Oc1ccc([N+](=O)[O-])cc1`, the T/C reads like this: (dose: 100.0 mg/kg/injection, schedule: Q04DX002 (ip), vehicle: saline with Tween-80) 106 % of control; (dose: 200.0 mg/kg/injection, schedule: Q04DX002 (ip), vehicle: saline with Tween-80) 122 % of control; (dose: 400.0 mg/kg/injection, schedule: Q04DX002 (ip), vehicle: saline with Tween-80) 102 % of control.
In the case of `CCCCCCCCCCCCCCCC(=O)Nc1ccn(C2OC(CO)C(O)C2O)c(=O)n1` (stereo unspecified), the T/C runs as follows: (dose: 3.12 mg/kg/injection, schedule: Q01DX009 (ip), vehicle: suspension in saline) 172 % of control; (dose: 6.25 mg/kg/injection, schedule: Q01DX009 (ip), vehicle: suspension in saline) 188 % of control; (dose: 12.5 mg/kg/injection, schedule: Q01DX009 (ip), vehicle: suspension in saline) 191 % of control and 235 % of control; (dose: 25.0 mg/kg/injection, schedule: Q01DX009 (ip), vehicle: suspension in saline) 260 % of control and 283 % of control.
On to `COc1ccc(CCN)c(OC)c1OC`, for which the T/C runs as follows: under setting [7], 105 % of control and 107 % of control; under setting [8], 104 % of control and 110 % of control.
Take `CC1(C)C=CC2=C(O1)C(=O)c1ccccc1C2=O`: the T/C was 101 % of control (dose: 25.0 mg/kg/injection, schedule: Q01DX009 (ip), vehicle: water); 107 % of control (dose: 50.0 mg/kg/injection, schedule: Q01DX009 (ip), vehicle: water); 115 % of control (dose: 100.0 mg/kg/injection, schedule: Q01DX009 (ip), vehicle: water); 110 % of control (dose: 200.0 mg/kg/injection, schedule: Q01DX009 (ip), vehicle: water).
As for `Nc1ccc(N=Nc2ccncc2)c2ccccc12`, the T/C is 100 % of control under setting [1] and 100 % of control under setting [2].
For the compound `Cc1cc2nc(CC(=O)c3ccncc3)c(=O)[nH]c2cc1C`, the T/C by setting is: under setting [4], 95 % of control; under setting [5], 87 % of control.
For `Cc1nnc(Cc2ccc([N+](=O)[O-])cc2)c2n[nH]c(C)c12`, the T/C runs as follows: (dose: 25.0 mg/kg/injection, schedule: Q01DX001 (ip), vehicle: Klucel (hydroxypropylcellulose) (HPC)) 104 % of control; (dose: 50.0 mg/kg/injection, schedule: Q01DX001 (ip), vehicle: Klucel (hydroxypropylcellulose) (HPC)) 102 % of control; (dose: 100.0 mg/kg/injection, schedule: Q01DX001 (ip), vehicle: Klucel (hydroxypropylcellulose) (HPC)) 109 % of control; under setting [9], 90 % of control.
Consider `CSc1nc2n(C)cc(C)cc-2c(=O)n1`, for which the T/C runs as follows: (dose: 25.0 mg/kg/injection, schedule: Q01DX001 (ip), vehicle: saline with Tween-80) 97 % of control; (dose: 50.0 mg/kg/injection, schedule: Q01DX001 (ip), vehicle: saline with Tween-80) 97 % of control; (dose: 100.0 mg/kg/injection, schedule: Q01DX001 (ip), vehicle: saline with Tween-80) 99 % of control.
Consider `CCCCCCC(=O)NC1=C(N2CC2)C(=O)C(NC(=O)CCCCCC)=C(N2CC2)C1=O`, for which the T/C (dose: 12.5 mg/kg/injection, schedule: Q04DX003 (ip), vehicle: saline with Tween-80) is 100 % of control; the T/C (dose: 25.0 mg/kg/injection, schedule: Q04DX003 (ip), vehicle: saline with Tween-80) is 109 % of control; the T/C under setting [10] is 245 % of control; the T/C (dose: 100.0 mg/kg/injection, schedule: Q04DX003 (ip), vehicle: saline with Tween-80) was 159 % of control; the T/C (dose: 150.0 mg/kg/injection, schedule: Q04DX003 (ip), vehicle: saline with Tween-80) was 195 % of control; the T/C under setting [11] was 120 % of control.
Take `CN(O)C1=c2ccccc2=NC1=O`: the T/C under setting [12] was 91 % of control, the T/C under setting [10] was 92 % of control and the T/C under setting [11] was 114 % of control.
Turning to `O=NN(C(=O)NC1CCCC1)C1CCCC1`, the T/C runs as follows: (dose: 25.0 mg/kg/injection, schedule: Q01DX001 (ip), vehicle: distilled water + Tween-80) 106 % of control; (dose: 50.0 mg/kg/injection, schedule: Q01DX001 (ip), vehicle: distilled water + Tween-80) 105 % of control; (dose: 100.0 mg/kg/injection, schedule: Q01DX001 (ip), vehicle: distilled water + Tween-80) 108 % of control; (dose: 200.0 mg/kg/injection, schedule: Q01DX001 (ip), vehicle: distilled water + Tween-80) 110 % of control; (dose: 400.0 mg/kg/injection, schedule: Q01DX001 (ip), vehicle: distilled water + Tween-80) 110 % of control.
For `COc1ccc([N+](=O)[O-])cc1Br`, the T/C by setting is: under setting [10], 100 % of control; under setting [11], 100 % of control; (dose: 400.0 mg/kg/injection, schedule: Q01DX009 (ip), vehicle: saline with Tween-80) 100 % of control.
Take `CC(NC(=O)OCc1ccccc1)C(=O)NC(CCCN=C(N)N)C(=O)O` (stereo not drawn) (Cbz-Ala-Arg-OH; configuration not given here): the T/C runs as follows: under setting [1], 100 % of control; under setting [2], 105 % of control; under setting [3], 108 % of control.
Regarding `Cc1[nH]c(C)c(Cl)c(=O)c1Cl`, the T/C reads like this: (dose: 6.25 mg/kg/injection, schedule: Q01DX009 (ip), vehicle: Klucel (hydroxypropylcellulose) (HPC)) 98 % of control; (dose: 12.5 mg/kg/injection, schedule: Q01DX009 (ip), vehicle: Klucel (hydroxypropylcellulose) (HPC)) 100 % of control; (dose: 25.0 mg/kg/injection, schedule: Q01DX009 (ip), vehicle: Klucel (hydroxypropylcellulose) (HPC)) 115 % of control.
On to `O=C(CN1CCCCC1)Nc1cccc(Cl)c1`, for which the T/C was 100 % of control under setting [12]; 103 % of control under setting [7]; 100 % of control under setting [10]; 107 % of control under setting [8]; 123 % of control under setting [11]; 120 % of control (dose: 200.0 mg/kg/injection, schedule: Q01DX009 (ip), vehicle: saline).
`S=C1CC2CCCC(C2)N1` (stereo unspecified): the T/C runs as follows: under setting [13], 95 % of control; (dose: 3.75 mg/kg/injection, schedule: Q01DX005 (ip), vehicle: Klucel (hydroxypropylcellulose) (HPC)) 100 % of control; under setting [14], 101 % of control and 94 % of control.
For `CC(=O)c1ccccc1OCC(O)CNc1ccc(Cl)cc1C(=O)c1ccccc1` (stereo unspecified), the T/C reads like this: under setting [4], 99 % of control and 92 % of control; under setting [5], 92 % of control; under setting [6], 89 % of control and 96 % of control.
Take `CC(=O)N1NC(=O)c2c([nH]c3ccccc23)C1c1ccccc1` (stereo unspecified): the T/C under setting [9] was 101 % of control; the T/C (dose: 200.0 mg/kg/injection, schedule: Q04DX002 (ip), vehicle: Klucel (hydroxypropylcellulose) (HPC)) was 106 % of control; the T/C (dose: 400.0 mg/kg/injection, schedule: Q04DX002 (ip), vehicle: Klucel (hydroxypropylcellulose) (HPC)) is 101 % of control.
With `CCCCCCCCCCCC(=O)NC(=S)Nc1ccccc1C(=O)OC`, the T/C (dose: 25.0 mg/kg/injection, schedule: Q01DX009 (ip), vehicle: saline) is 105 % of control and the T/C under setting [7] was 99 % of control.
Take `N=C(N)c1ccc(Nc2ccc(-c3cc4ccc(C(=N)N)cc4[nH]3)cc2)cc1`: the T/C is, setting by setting: under setting [13], 174 % of control; under setting [14], 166 % of control and 194 % of control.
In the case of `Cc1cc(C)n2c(-c3ccccc3)c(C)c(C#N)c2n1`, the T/C is 106 % of control under setting [4], 100 % of control under setting [5] and 91 % of control under setting [6].
